Measured values taken from patent US10537652B2, “Cyclic urea compounds as granzyme B inhibitors” (viDA Therapeutics Inc., priority 2014, dated 2020).

Target: T1, GzmB (Homo sapiens, UniProt P10144)
T1 construct: purchased Froelich Lab, Northshore University Health Systems Research Institute, Evanston, Ill., USA
Assay: Inhibition of Fibronectin Cleavage by GzmB (Example D7)
Format: biochemical
Conditions: 20 nM granzyme B, 30° C.; for inhibition at 0.62 µM: inhibitor 0.62 uM, read-out: Percent Inhibition at Inhibitor Concentration 0.62 uM; for inhibition at 5.56 µM: inhibitor 5.56 uM, read-out: Percent Inhibition at Inhibitor Concentration 5.56 uM; for inhibition at 50 µM: inhibitor 50 uM, read-out: Percent Inhibition at Inhibitor Concentration 50 uM
Method: Black, 96 well high-binding assay plates (Griener Bio-one) were treated overnight at 4° C. with 40 uL of 8 ug/mL Hilyte Fluor 488 labeled Fibronectin (Cytoskeleton, Inc). After fibronectin coating, plates were washed 3 times in buffer (20 mM Tris-HCl, pH 7.4, 20 mM NaCl) then once with granzyme B assay buffer (50 mM HEPES, pH 7.5, 0.1% CHAPS). After washing, 50 uL of granzyme B assay buffer was added to each fibronectin-coated well. In a separate non-binding 96 well assay plate 5 uL of 20X inhibitor serial dilution stocks were added to 45 uL of 2.22x GzmB mix to establish inhibition (enzyme/inhibitor mixes were all prepared in granzyme B assay buffer and were incubated first at room temperature for 20 minutes, then at 30° C. for another 10 minutes). After incubation, 50 uL of this 2x enzyme/inhibitor mix was added to the corresponding coated well to initiate fibronectin cleavage (20 nM final granzyme B concentration, 8-point inhibitor dilution series starting at 50 uM). The assay was conducted at 30° C. in the TECAN plate reader (TECAN INFINITE® M1000 Pro), which was programmed to monitor the kinetic fluorescence polarization signal (filter set Ex/Em 470 nm/527 nm) with readings taken every minute, for 1 hour. Proteolytic activity was evaluated as the rate of fluorescence enhancement in the parallel emission over the linear range of the reaction. % Inhibition values were calculated from assay controls and the resulting data is shown in Table 6.

T1 sequence (P10144 21-247): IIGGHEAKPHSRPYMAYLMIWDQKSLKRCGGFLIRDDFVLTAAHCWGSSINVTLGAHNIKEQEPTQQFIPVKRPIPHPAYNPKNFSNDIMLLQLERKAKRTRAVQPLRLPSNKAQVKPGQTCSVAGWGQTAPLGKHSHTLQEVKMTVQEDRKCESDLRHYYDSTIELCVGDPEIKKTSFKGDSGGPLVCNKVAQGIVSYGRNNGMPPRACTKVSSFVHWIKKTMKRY

Structure (SMILES)	inhibition at 0.62 µM [%]	inhibition at 5.56 µM [%]	inhibition at 50 µM [%]
CC[C@H](C)[C@H](NC(=O)CCC(=O)O)C(=O)NCC(=O)N1C(=O)NC[C@H]1C(=O)NCc1nn[nH]n1 [Compound C1, 4-(((2S,3S)-1-((2-((S)-5-(((2H-tetrazol-5-yl)methyl)carbamoyl)-2-oxoimidazolidin-1-yl)-2-oxoethyl)amino)-3-methyl-1-oxopentan-2-yl)amino)-4-oxobutanoic acid]	39	69	86
CC[C@H](C)[C@H](NC(=O)CCC(=O)O)C(=O)NCC(=O)N1C(=O)N(C2CCCCC2)C[C@H]1C(=O)NCc1nn[nH]n1 [Compound C2, 4-(((2S,3S)-1-((2-((S)-5-(((2H-TETRAZOL-5-YL)METHYL)CARBAMOYL)-3-CYCLOHEXYL-2-OXOIMIDAZOLIDIN-1-YL)-2-OXOETHYL)AMINO)-3-METHYL-1-OXOPENTAN-2-YL)AMINO)-4-OXOBUTANOIC ACID]	75	91	96
